In patent US5817641A, “Treatment of enterotoxigenic diarrhea with 2-substituted adenosine derivatives” (priority 1997, dated 1998):

Key:
[1] = system: ST receptor (GC-C); assay: ST receptor binding assay ([125I]-ST) in rat intestinal membranes; conditions: 1 mM nucleotide, presence or absence of GTP and magnesium
Experimental: Membranes were prepared from rat intestinal mucosa cells as described previously (Gazzano et al., (1991) Infect. Immun., 59, 1552-1557, which is incorporated herein by reference). Briefly, Sprague-Dawley rats were sacrificed, small intestine removed and rinsed in ice-cold 0.9% NaCl. All procedures were conducted at 4° C. The mucosal layer was scraped from the intestine and homogenized in 50 mM Tris-HCl (pH 7.6) containing 1 mM dithiothreitol, 1 mM EDTA and 1 mM phenylmethylsulfonyl fluoride, (TED) supplemented with 0.25M sucrose (TEDS). […]
ST binding was quantified as described previously (Hugues et al., (1991) Biochemistry, 30, 10738-10745, which is incorporated herein by reference). […] Parallel incubations contained excess (10^-6 M) unlabeled ST to quantify non-specific binding. Reaction mixtures were incubated for 40 minutes at 37° C. and bound [^125 I]-ST was separated from free ligand by vacuum filtration through Whatman (GF/B glass fiber filters pretreated with 0.3% polyethyleneimine. Filters were washed with 10 ml of 20 mM phosphate-buffered saline (pH 7.2) containing 1 mM EDTA. Radioactivity which remained on the filter was quantified in a Packard γ-counter. Specific binding was determined by subtracting non-specific binding from the total [^125 I]-ST bound in the absence of unlabeled ligand. Non-specific binding was routinely less than 20% of total binding.

[2] = biological target: T1, guanylyl cyclase C (GC-C) (Rattus norvegicus, UniProt P23897); assay: biochemical; format: biochemical; conditions: for maximum inhibition of guanylyl cyclase: with or without ST; for inhibition at 1000 µM: read-out: decrease of Vmax of guanylyl cyclase; for guanylyl cyclase activation by peptide: 10 μM peptide, presence or absence of 1 mM ATP
T1 construct: The mucosal layer was scraped from the intestine and homogenized; from tissue; host or cells: small intestinal mucosa of Sprague-Dawley rats (100,000×g washed membrane pellet)
Experimental: Membranes were prepared from rat intestinal mucosa cells as described previously (Gazzano et al., (1991) Infect. Immun., 59, 1552-1557, which is incorporated herein by reference). Briefly, Sprague-Dawley rats were sacrificed, small intestine removed and rinsed in ice-cold 0.9% NaCl. All procedures were conducted at 4° C. The mucosal layer was scraped from the intestine and homogenized in 50 mM Tris-HCl (pH 7.6) containing 1 mM dithiothreitol, 1 mM EDTA and 1 mM phenylmethylsulfonyl fluoride, (TED) supplemented with 0.25M sucrose (TEDS). Homogenates were centrifuged at 100,000×g for 60 minutes and the resulting pellet was sequentially washed in (i) TED supplemented with 0.5M KCl, (ii) TED:TEDS (1:1) and (iii) TED. The final pellet was homogenized in TED at a protein concentration of 5-10 mg/mL and aliquots were stored at -70° C.
Guanylyl cyclase activity was assayed as described previously (Waldman et al., (1984) J. Infect. Dis., 149, 83-89, which is incorporated herein by reference). Membranes were incubated at 37° C. in a final volume of 100 μl in the presence of 50 mM Tris-HCl (pH 7.6) containing 10 mM theophylline, 7.5 mM creatine phosphate/[…] creatine phosphokinase (160 U/mg of protein), GTP, manganese or magnesium cofactor (2 mM in excess of nucleotide) and ST and/or adenine nucleotide where indicated. Reactions were initiated by addition of membrane, incubated 5 minutes and terminated by adding 400 μl of 50 mM sodium acetate (pH 4.0) and boiling for 5 minutes. Following acetylation, samples were diluted with 50 mM NaAc containing 20 mM CaCl2. Generated cGMP was quantified by radioimmunoassay as described previously (Waldman et al., (1984) J. Infect. Dis., 149, 83-89). Radioimmunoassays were performed in triplicate, enzyme reactions were performed in duplicate, and results are representative of at least 3 experiments. Enzyme activity was linear with respect to protein concentration and time for all experiments.
Protein concentration was measured by the method of Bradford (Bio-Rad) using bovine serum albumin as standard (Bradford, M. M., (1976) Anal. Biochem., 72, 248-254). All assays were performed in duplicate and data are representative of at least 3 experiments. Values reported for the S0.5 and Vmax are equivalent to the concentration of substrate yielding half-maximum guanylyl cyclase activity and the maximum velocity of the enzyme activity, respectively. All nucleotides were obtained from Sigma, except 2-chloroadenosine 5'-triphosphate (2ClATP) which were from Research Biochemicals Incorporated (Natick, Mass.).

[3] = system: GC-C in membranes from T84 and Caco 2 cells; assay: Guanylyl cyclase activity in membranes prepared from T84 and Caco 2 cells; format: biochemical
Source text: Guanylyl cyclase C undergoes post-translations processing yielding multiple ST-binding proteins detected in crosslinking studies utilizing ^125 I-ST or by Western blot analysis (Vaandrager et al., (1993) J. Biol. Chem., 268, 2174-2179; Vaandrager et al., (1993) J. Biol. Chem., 268, 19598-19603; Ivens et al., (1990) Infect. Immun., 58, 1817-1820; de Sauvage et al., (1993) J. Biol. Chem., 267, 6479-6482; Cohen et al., (1993) J. Cell. Physiol., 156, 138-144). Post-translational processing of GC-C appears to reflect heterogenicity of glycosylation and proteolysis. Processing has been observed in membranes examined from intestinal mucosal cells, intestinal cells grown in vitro, and mammalian cells expressing cloned rat or human GC-C. Thus, the shift in apparent cooperativity with associated changes in Hill coefficients induced by 2-substituted adenine nucleotides could reflect differences in their effects on different populations of GC-C in intestinal membranes. Guanylyl cyclase C is the predominant, […], member of the particulate guanylyl cyclase family expressed by T84 and Caco 2 cells in vitro (Vaandrager et al., (1992) Gastroenterology, 102, 1161-1169). […]

[4] = system: P2y purinergic receptors; conditions: cited from earlier work
[5] = magnesium cofactor, basal and ST (1 μM)-activated
[6] = manganese cofactor (1.6 without nucleotide)

T1 sequence (P23897 23-1072): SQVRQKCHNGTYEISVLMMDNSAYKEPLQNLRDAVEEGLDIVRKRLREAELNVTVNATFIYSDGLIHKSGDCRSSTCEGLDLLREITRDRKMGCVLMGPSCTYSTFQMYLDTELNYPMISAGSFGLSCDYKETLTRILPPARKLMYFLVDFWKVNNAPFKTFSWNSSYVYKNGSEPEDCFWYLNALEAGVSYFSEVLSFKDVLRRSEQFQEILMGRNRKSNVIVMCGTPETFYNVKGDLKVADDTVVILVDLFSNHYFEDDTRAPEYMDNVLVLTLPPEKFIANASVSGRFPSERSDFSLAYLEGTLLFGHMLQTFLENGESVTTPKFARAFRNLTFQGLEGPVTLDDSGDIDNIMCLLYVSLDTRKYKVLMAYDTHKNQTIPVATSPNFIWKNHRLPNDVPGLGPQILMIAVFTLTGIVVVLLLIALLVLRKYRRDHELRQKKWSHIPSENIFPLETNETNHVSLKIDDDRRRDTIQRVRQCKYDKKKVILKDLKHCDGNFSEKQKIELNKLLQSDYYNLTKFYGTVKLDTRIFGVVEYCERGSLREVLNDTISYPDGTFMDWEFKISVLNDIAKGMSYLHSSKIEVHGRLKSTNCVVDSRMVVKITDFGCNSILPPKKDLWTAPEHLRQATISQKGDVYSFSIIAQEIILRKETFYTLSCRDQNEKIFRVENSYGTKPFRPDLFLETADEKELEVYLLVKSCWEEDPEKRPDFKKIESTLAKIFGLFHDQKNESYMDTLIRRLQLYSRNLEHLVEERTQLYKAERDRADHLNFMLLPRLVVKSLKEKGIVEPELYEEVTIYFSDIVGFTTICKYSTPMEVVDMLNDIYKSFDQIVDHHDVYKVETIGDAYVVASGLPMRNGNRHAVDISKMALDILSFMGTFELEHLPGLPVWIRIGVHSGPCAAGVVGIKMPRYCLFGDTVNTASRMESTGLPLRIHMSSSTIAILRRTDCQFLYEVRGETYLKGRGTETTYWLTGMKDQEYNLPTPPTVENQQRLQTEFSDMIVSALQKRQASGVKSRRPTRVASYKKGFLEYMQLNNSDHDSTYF

Nc1nc(Cl)nc2c1ncn2[C@@H]1O[C@H](COP(=O)(O)OP(=O)(O)OP(=O)(O)O)[C@@H](O)[C@H]1O [2ClATP, 2-chloroadenosine 5'-triphosphate]
specific binding of [125I]-ST to intestinal membranes [1]: unchanged
Ki ([2]; Ki (concentration yielding half-maximum inhibition)): 300 µM
guanylyl cyclase activity inhibited ([2]; in the presence of maximally activating concentrations of AMPS): > 95%
Ki values in the presence or absence of ST ([2]; magnesium cofactor): not significantly different
effect on guanylyl cyclase activity [2, 5]: inhibited guanylyl cyclase activity
maximum inhibition of guanylyl cyclase ([2]; magnesium cofactor): > 95%
effect on guanylyl cyclase activity ([2]; manganese cofactor): inhibited guanylyl cyclase in a concentration-dependent fashion
guanylyl cyclase activity inhibited ([2]; manganese cofactor): > 95%
Ki when AMPS is incorporated in enzyme incubations ([2]; with maximally activating AMPS (3 mM)): unchanged

Nc1nc(Cl)nc2c1ncn2[C@@H]1O[C@H](CO)[C@@H](O)[C@H]1O [2ClAdo]
effect on guanylyl cyclase activity ([2]; manganese cofactor): did not significantly inhibit guanylyl cyclase

CSc1nc(N)c2ncn([C@@H]3O[C@H](COP(=O)(O)OP(=O)(O)OP(=O)(O)O)[C@@H](O)[C@H]3O)c2n1 [2MeSATP]
Ki ([2]; Ki for inhibition of guanylyl cyclase, 20 μM GTP): 390 ± 260 µM
Ki ([2]; Ki for inhibition of guanylyl cyclase, 1000 μM GTP): 280 ± 180 µM
Ki values in the presence or absence of ST ([2]; magnesium cofactor): not significantly different
Hill coefficient of guanylyl cyclase in the presence of nucleotide ([2]; magnesium cofactor, 1 mM nucleotide, presence and absence of ST): about 1.0
effect on guanylyl cyclase activity [2, 5]: inhibited guanylyl cyclase activity
maximum inhibition of guanylyl cyclase ([2]; magnesium cofactor): > 95%
effect on Vmax and S0.5 ([2]; magnesium cofactor, nucleotide 1 mM, presence or absence of ST): lowered the Vmax without significantly changing the S0.5
effect on guanylyl cyclase activity ([2]; manganese cofactor): inhibited guanylyl cyclase in a concentration-dependent fashion
guanylyl cyclase activity inhibited ([2]; manganese cofactor): > 95%
Hill coefficient of guanylyl cyclase in the presence of nucleotide [2, 6]: 0.7
effect on S0.5 ([2]; manganese cofactor, 1 mM nucleotide): only a small effect on the S0.5
inhibition at 1000 µM [2]: > 90%
effect on cooperativity of GC-C [3]: shift from positive to negative cooperativity
inhibition of GC-C [3]: potently inhibited GC-C

Nc1ncnc2c1ncn2[C@@H]1O[C@H](COP(=O)(O)OP(O)(O)=S)[C@@H](O)[C@H]1O [ADPβS, adenosine 5'-O-(2-thiodiphosphate), reference compound]
ligand potency for P2y receptors [4]: potent ligand for P2y receptors

Nc1ncnc2c1ncn2[C@@H]1O[C@H](COP(=O)(O)CP(=O)(O)OP(=O)(O)O)[C@@H](O)[C@H]1O [AMPCPP, α,β-methylene adenosine 5'-triphosphate, reference compound]
ligand potency for P2y receptors [4]: poor ligand for P2y receptors

Nc1ncnc2c1ncn2[C@@H]1O[C@H](COP(O)(O)=S)[C@@H](O)[C@H]1O [AMPS, adenosine 5'-O-thiomonophosphate, reference compound]
effect on guanylyl cyclase activity [2, 5]: potentiated guanylyl cyclase activation by ST in a concentration-dependent fashion
effect on guanylyl cyclase activity ([2]; manganese cofactor): did not significantly inhibit guanylyl cyclase
Ka to potentiate ST-activation of guanylyl cyclase when 2ClATP is incorporated ([2]; with 2ClATP at 0.3 mM): unchanged

Nc1ncnc2c1ncn2[C@@H]1O[C@H](COP(=O)(O)OP(=O)(O)OP(=O)(O)O)[C@@H](O)[C@H]1O [ATP, reference compound]
effect on guanylyl cyclase activity [2, 5]: activated guanylyl cyclase in a concentration-dependent manner but with a lower efficacy than ATPγS
effect on guanylyl cyclase activity ([2]; manganese cofactor): inhibited guanylyl cyclase in a concentration-dependent fashion
Hill coefficient of guanylyl cyclase in the presence of nucleotide [2, 6]: less than 1.0
S0.5 of guanylyl cyclase in the presence of nucleotide ([2]; manganese cofactor, 1 mM nucleotide (0.08 mM without)): 0.25 mM
concentration at which the nucleotide inhibits guanylyl cyclase activity (biphasic dose-response) ([2]; rat intestinal membranes): above 1 mM
inhibition at 1000 µM [2]: 80%

Nc1ncnc2c1ncn2[C@@H]1O[C@H](CO[P@](=O)(O)O[P@](=O)(O)O[P@@](=O)(O)S)[C@@H](O)[C@H]1O [ATPγS, adenosine 5'-O-(3-thiotriphosphate), reference compound]
maximal activation of guanylyl cyclase ([2]; magnesium cofactor, in the presence of ST (1 μM)): 2- to 3 fold
effect on guanylyl cyclase activity ([2]; manganese cofactor): inhibited guanylyl cyclase in a concentration-dependent fashion

ANP: atrial natriuretic peptides, ligand of GC-A [reference compound]
guanylyl cyclase activation by peptide [2]: did not exhibit guanylyl cyclase activation

CNP: C-type natriuretic peptide, ligand of GC-B [reference compound]
guanylyl cyclase activation by peptide [2]: did not exhibit guanylyl cyclase activation
